pIC50: −log10 of the molar value. Values joined by “and” are separate entries in the source; they are usually repeats but may differ in a detail not shown here. Equal entries are not always repeated.
Tested on: 328373-195-R-J1-PDC complex spheroids, viability % test/control
Assay: Anticancer human tumor 328373-195-R-J1-PDC patient-derived head and neck squamous carcinoma cell line growth inhibition [CLK]
Details: for viability, T/C: stronger effect = lower value
Procedure, shortened: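 Multi-cell-type spheroids combined patient-derived tumor cells with HUVEC endothelial cells and human mesenchymal stem cells. Paired agents were dosed in half-log steps down from about clinical Cmax, or from 10 microM where Cmax was unknown.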

[1] = curve of first compound, second compound 0.0316 µM
[2] = curve of first compound, second compound 0.1 µM
[3] = curve of first compound, second compound 0.316 µM
[4] = curve of first compound, second compound 1 µM
[5] = curve of first compound, second compound 3.16 µM
[6] = curve of first compound, second compound 10 µM
[7] = second compound 0.0316 µM, first compound 0.0316 µM
[8] = second compound 0.0316 µM, first compound 0.1 µM
[9] = second compound 0.0316 µM, first compound 0.316 µM
[10] = second compound 0.0316 µM, first compound 1 µM
[11] = second compound 0.0316 µM, first compound 3.16 µM
[12] = second compound 0.0316 µM, first compound 10 µM
[13] = second compound 0.1 µM, first compound 0.0316 µM
[14] = second compound 0.1 µM, first compound 0.1 µM
[15] = second compound 0.1 µM, first compound 0.316 µM
[16] = second compound 0.1 µM, first compound 1 µM
[17] = second compound 0.1 µM, first compound 3.16 µM
[18] = second compound 0.1 µM, first compound 10 µM
[19] = second compound 0.316 µM, first compound 0.0316 µM
[20] = second compound 0.316 µM, first compound 0.1 µM
[21] = second compound 0.316 µM, first compound 0.316 µM
[22] = second compound 0.316 µM, first compound 1 µM
[23] = second compound 0.316 µM, first compound 3.16 µM
[24] = second compound 0.316 µM, first compound 10 µM
[25] = second compound 1 µM, first compound 0.0316 µM
[26] = second compound 1 µM, first compound 0.1 µM
[27] = second compound 1 µM, first compound 0.316 µM
[28] = second compound 1 µM, first compound 1 µM
[29] = second compound 1 µM, first compound 3.16 µM
[30] = second compound 1 µM, first compound 10 µM
[31] = second compound 3.16 µM, first compound 0.0316 µM
[32] = second compound 3.16 µM, first compound 0.1 µM
[33] = second compound 3.16 µM, first compound 0.316 µM
[34] = second compound 3.16 µM, first compound 1 µM
[35] = second compound 3.16 µM, first compound 3.16 µM
[36] = second compound 3.16 µM, first compound 10 µM
[37] = second compound 10 µM, first compound 0.0316 µM
[38] = second compound 10 µM, first compound 0.1 µM
[39] = second compound 10 µM, first compound 0.316 µM
[40] = second compound 10 µM, first compound 1 µM
[41] = second compound 10 µM, first compound 3.16 µM
[42] = second compound 10 µM, first compound 10 µM
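Note: spheroids exposed to the agents for 7 days.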

For `C#Cc1c(F)ccc2cc(O)cc(-c3ncc4c(N5CC6CCC(C5)N6)nc(OCC56CCCN5CC(F)C6)nc4c3F)c12` (stereo unspecified) + CNC(=O)c1ccc(Nc2nc(OC3CCCC3)c3c(-c4ccc5nc(C)oc5c4)c[nH]c3n2)c(OC)c1, the pIC50 [1] was 5.29, the pIC50 [2] was > 7.50 and the pIC50 [3] was > 7.50. For the same compound, the pIC50 [4] was > 7.50, the pIC50 [5] was > 7.50 and the pIC50 [6] was > 7.50. For the same compound, the viability, T/C [7] was 68.5%, the viability, T/C [8] was 63.2% and the viability, T/C [9] was 60.2%. The viability, T/C [10] was 65%, the viability, T/C [11] was 62.6% and the viability, T/C [12] was 32.6%. For the same compound, the viability, T/C [13] was 11.3%, the viability, T/C [14] was 10.5% and the viability, T/C [15] was 7.58%. The viability, T/C [16] was 11.6%, the viability, T/C [17] was 9.36% and the viability, T/C [18] was 7.63%. The viability, T/C [19] was 8.02%, the viability, T/C [20] was 9.37% and the viability, T/C [21] was 9.67%. The viability, T/C [22] was 8.78%, the viability, T/C [23] was 7.32% and the viability, T/C [24] was 5.64%. The viability, T/C [25] was 10%, the viability, T/C [26] was 11.6% and the viability, T/C [27] was 8.24%. The viability, T/C [28] was 9.01%, the viability, T/C [29] was 8.47% and the viability, T/C [30] was 5.54%. The viability, T/C [31] was 9.2%, the viability, T/C [32] was 8.8% and the viability, T/C [33] was 9.68%. It also gave a viability, T/C [34] of 9.11%, a viability, T/C [35] of 9.06% and a viability, T/C [36] of 6.06%. It also gave a viability, T/C [37] of 10.7%, a viability, T/C [38] of 11.8% and a viability, T/C [39] of 10.1%. It also gave a viability, T/C [40] of 10.3%, a viability, T/C [41] of 10.5% and a viability, T/C [42] of 4.63%.
With `CCc1c2c(nc3ccc(O)cc13)-c1cc3c(c(=O)n1C2)COC(=O)[C@]3(O)CC` the viability, T/C (compound 0.00316 µM) was 12.7% and 12.1%, the viability, T/C (compound 0.01 µM) was 3.27% and 1.07% and the viability, T/C (compound 0.0316 µM) was 1.41% and 1.91%. For the same compound, the viability, T/C (compound 0.1 µM) was 3.19% and 1.33%, the viability, T/C (compound 0.316 µM) was 1.53% and 0.43% and the viability, T/C (compound 1 µM) was 2.07% and 1.46%. For the same compound, the pIC50 (curve of compound) was > 8.50.
With `COC1C=CCC(C)C(C)S(=O)(=O)NC(=O)c2ccc3c(c2)N(CC2CCC21)CC1(CCCc2cc(Cl)ccc21)CO3` (stereo unspecified) + CNC(=O)c1ccc(Nc2nc(OC3CCCC3)c3c(-c4ccc5nc(C)oc5c4)c[nH]c3n2)c(OC)c1 the pIC50 [1] was 5.37, the pIC50 [2] was > 7.50 and the pIC50 [3] was > 7.50. The pIC50 [4] was > 7.50, the pIC50 [5] was > 7.50 and the pIC50 [6] was > 7.50. The viability, T/C [7] was 56.2%, the viability, T/C [8] was 70.6% and the viability, T/C [9] was 81.3%. The viability, T/C [10] was 83%, the viability, T/C [11] was 66.2% and the viability, T/C [12] was 4.89%. The viability, T/C [13] was 13%, the viability, T/C [14] was 13.1% and the viability, T/C [15] was 12.5%. For the same compound, the viability, T/C [16] was 15.2%, the viability, T/C [17] was 9.14% and the viability, T/C [18] was 2.12%. The viability, T/C [19] was 12.3%, the viability, T/C [20] was 11.6% and the viability, T/C [21] was 11.9%. It also gave a viability, T/C [22] of 8.54%, a viability, T/C [23] of 6.49% and a viability, T/C [24] of 5.35%. The viability, T/C [25] was 12.7%, the viability, T/C [26] was 11.2% and the viability, T/C [27] was 9.61%. The viability, T/C [28] was 8.8%, the viability, T/C [29] was 6.45% and the viability, T/C [30] was 5.97%. The viability, T/C [31] was 11.9%, the viability, T/C [32] was 12.1% and the viability, T/C [33] was 10.3%. For the same compound, the viability, T/C [34] was 7.26%, the viability, T/C [35] was 6.87% and the viability, T/C [36] was 11.6%. It also gave a viability, T/C [37] of 13.3%, a viability, T/C [38] of 13.5% and a viability, T/C [39] of 10.2%. It also gave a viability, T/C [40] of 8.44%, a viability, T/C [41] of 8.98% and a viability, T/C [42] of 9.48%.

Reference: PubChem BioAssay AID2060620 (Molecular Pharmacology Branch, DTP, NCI, 2025)
